From US10669283B2, “Compound and pharmacologically acceptable salt thereof” (MEIJI SEIKA PHARMA CO., LTD., priority 2016, dated 2020) come the findings set out here.

Some results are limits rather than exact numbers.

In the experiment the test system is PDE4. Description: PDE4 inhibition, scintillation proximity assay (SPA).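 Also: A below 100 nM B 100 to below 1000 nM C 1000 nM or more.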 The class given is biochemical. Conditions: scintillation proximity assay (SPA); evaluated as classes A, B, C; read-out: PDE4 Inhibitory Activity (concentration for the inhibition rate of 50%). A digest of the protocol: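 Compound pre-diluted 1:10 in 50 mM Tris-HCl pH 7.4, 8.3 mM MgCl2, 1.7 mM EGTA, 3 mg/mL BSA, then incubated with PDE4 and [2,8-3H]-cAMP for 120 min at room temperature. Product captured on ZnSO4-containing YSi-SPA beads for 15 min; radioactivity counted against no-enzyme blank and DMSO control.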
(Scintillation proximity formats need no separation of bound from free tracer.)
`CC(=O)c1cc(-c2nccs2)c2oc(N3CC4CCC(C3)N4)nc2c1C(F)(F)F` [Example 179, 1-(2-(3,8-Diazabicyclo[3.2.1]octan-3-yl)-7-(thiazol-2-yl)-4-(trifluoromethyl)benzo[d]oxazol-5-yl)ethan-1-one]: the IC50 was below 100 nM.

For the compound `CC(=O)c1cc(-c2nccs2)c2oc(N3CC4CC(C3)N4)nc2c1C(F)(F)F` [Example 180, 1-(2-(3,6-Diazabicyclo[3.1.1]heptan-3-yl)-7-(thiazol-2-yl)-4-(trifluoromethyl)benzo[d]oxazol-5-yl)ethan-1-one], the IC50 was below 100 nM. Take `CC(O)c1cc(-c2nccs2)c2oc(N3CC4CCC(C3)N4)nc2c1C(F)(F)F` (stereo not shown) [Example 181, 1-(2-(3,8-Diazabicyclo[3.2.1]octan-3-yl)-7-(thiazol-2-yl)-4-(trifluoromethyl)benzo[d]oxazol-5-yl)ethan-1-ol]: the IC50 is below 100 nM. Take `CC(O)c1cc(-c2nccs2)c2oc(N3CC4CC(C3)N4)nc2c1C(F)(F)F` (stereo not shown) [Example 182, 1-(2-(3,6-Diazabicyclo[3.1.1]heptan-3-yl)-7-(thiazol-2-yl)-4-(trifluoromethyl)benzo[d]oxazol-5-yl)ethan-1-ol]: the IC50 was below 100 nM. With `OC(c1cc(-c2nccs2)c2oc(N3CC4CCC(C3)N4)nc2c1C(F)(F)F)C(F)F` (stereo not shown) [Example 183, 1-(2-(3,8-Diazabicyclo[3.2.1]octan-3-yl)-7-(thiazol-2-yl)-4-(trifluoromethyl)benzo[d]oxazol-5-yl)-2,2-difluoroethan-1-ol] the figure was below 100 nM. To `COC(C)c1cc(-c2nccs2)c2oc(N3CC4CCC(C3)N4)nc2c1C(F)(F)F` (stereo not shown) [Example 184, 2-(3,8-Diazabicyclo[3.2.1]octan-3-yl)-5-(1-methoxyethyl)-7-(thiazol-2-yl)-4-(trifluoromethyl)benzo[d]oxazole] belongs below 100 nM. To `COC(C)c1cc(-c2nccs2)c2oc(N3CC4CC(C3)N4)nc2c1C(F)(F)F` (stereo not shown) [Example 185, 2-(3,6-Diazabicyclo[3.1.1]heptan-3-yl)-5-(1-methoxyethyl)-7-(thiazol-2-yl)-4-(trifluoromethyl)benzo[d]oxazole] belongs below 100 nM; to `CCOC(=O)c1cc(-c2nccs2)c2oc(N3CC4CCC(C3)N4)nc2c1OC(F)(F)F` [Example 186, Ethyl 2-(3,8-diazabicyclo[3.2.1]octan-3-yl)-7-(thiazol-2-yl)-4-(trifluoromethoxy)benzo[d]oxazole-5-carboxylate], below 100 nM. Turning to `CCOC(=O)c1cc(-c2nccs2)c2oc(N3CC4CC(C3)N4)nc2c1OC(F)(F)F` [Example 187, Ethyl 2-(3,6-diazabicyclo[3.1.1]heptan-3-yl)-7-(thiazol-2-yl)-4-(trifluoromethoxy)benzo[d]oxazole-5-carboxylate], the IC50 is below 100 nM. In the case of `CCOC(=O)c1cc(-c2nccs2)c2oc(N3CC4CCCC(C3)N4)nc2c1OC(F)(F)F` [Example 188, Ethyl 2-(3,9-diazabicyclo[3.3.1]nonan-3-yl)-7-(thiazol-2-yl)-4-(trifluoromethoxy)benzo[d]oxazole-5-carboxylate], the IC50 was below 100 nM. Consider `O=C(O)c1cc(-c2nccs2)c2oc(N3CC4CCC(C3)N4)nc2c1OC(F)(F)F` [Example 189, 2-(3,8-Diazabicyclo[3.2.1]octan-3-yl)-7-(thiazol-2-yl)-4-(trifluoromethoxy)benzo[d]oxazole-5-carboxylic acid], for which the IC50 was 100 to 1000 nM. With `O=C(O)c1cc(-c2nccs2)c2oc(N3CC4CC(C3)N4)nc2c1OC(F)(F)F` [Example 190, 2-(3,6-Diazabicyclo[3.1.1]heptan-3-yl)-7-(thiazol-2-yl)-4-(trifluoromethoxy)benzo[d]oxazole-5-carboxylic acid] the figure was above 1000 nM; with `O=C(O)c1cc(-c2nccs2)c2oc(N3CC4CCCC(C3)N4)nc2c1OC(F)(F)F` [Example 191, 2-(3,9-Diazabicyclo[3.3.1]nonan-3-yl)-7-(thiazol-2-yl)-4-(trifluoromethoxy)benzo[d]oxazole-5-carboxylic acid], 100 to 1000 nM. To `O=C(c1cc(-c2nccs2)c2oc(N3CC4CCC(C3)N4)nc2c1OC(F)(F)F)N1CCC1` [Example 192, (2-(3,8-Diazabicyclo[3.2.1]octan-3-yl)-7-(thiazol-2-yl)-4-(trifluoromethoxy)benzo[d]oxazol-5-yl) (azetidin-1-yl)methanone] belongs below 100 nM. Turning to `CN(CCO)C(=O)c1cc(-c2nccs2)c2oc(N3CC4CCC(C3)N4)nc2c1OC(F)(F)F` [Example 193, 2-(3,8-Diazabicyclo[3.2.1]octan-3-yl)-N-(2-hydroxyethyl)-N-methyl-7-(thiazol-2-yl)-4-(trifluoromethoxy)benzo [d]oxazole-5-carboxamide], the IC50 is below 100 nM.

As to `O=C(c1cc(-c2nccs2)c2oc(N3CC4CCC(C3)N4)nc2c1OC(F)(F)F)N1CC(O)(C(F)(F)F)C1` [Example 194, (2-(3,8-Diazabicyclo[3.2.1]octan-3-yl)-7-(thiazol-2-yl)-4-(trifluoromethoxy)benzo[d]oxazol-5-yl)(3-hydroxy-3-(trifluoromethyl)azetidin-1-yl)methanone], the IC50 was 100 to 1000 nM. For `CC(C)(O)c1cc(-c2nccs2)c2oc(N3CC4CCC(C3)N4)nc2c1OC(F)(F)F` [Example 195, 2-(2-(3,8-Diazabicyclo[3.2.1]octan-3-yl)-7-(thiazol-2-yl)-4-(trifluoromethoxy)benzo[d]oxazol-5-yl)propan-2-ol], the IC50 is below 100 nM. With `CC(C)(O)c1cc(-c2nccs2)c2oc(N3CC4CC(C3)N4)nc2c1OC(F)(F)F` [Example 196, 2-(2-(3,6-Diazabicyclo[3.1.1]heptan-3-yl)-7-(thiazol-2-yl)-4-(trifluoromethoxy)benzo[d]oxazol-5-yl)propan-2-ol] the figure was below 100 nM; with `CC(C)(O)c1cc(-c2nccs2)c2oc(N3CC4CCCC(C3)N4)nc2c1OC(F)(F)F` [Example 197, 2-(2-(3,9-Diazabicyclo[3.3.1]nonan-3-yl)-7-(thiazol-2-yl)-4-(trifluoromethoxy)benzo[d]oxazol-5-yl)propan-2-ol], below 100 nM. For `COC(C)(C)c1cc(-c2nccs2)c2oc(N3CC4CCC(C3)N4)nc2c1OC(F)(F)F` [Example 198, 2-(3,8-Diazabicyclo[3.2.1]octan-3-yl)-5-(2-methoxypropan-2-yl)-7-(thiazol-2-yl)-4-(trifluoromethoxy)benzo[d]oxazole], the IC50 is below 100 nM. Turning to `COC(C)(C)c1cc(-c2nccs2)c2oc(N3CC4CC(C3)N4)nc2c1OC(F)(F)F` [Example 199, 2-(3,6-Diazabicyclo[3.1.1]heptan-3-yl)-5-(2-methoxypropan-2-yl)-7-(thiazol-2-yl)-4-(trifluoromethoxy)benzo[d]oxazole], the IC50 is below 100 nM.

For the compound `COC(C)(C)c1cc(-c2nccs2)c2oc(N3CC4CCCC(C3)N4)nc2c1OC(F)(F)F` [Example 200, 2-(3,9-Diazabicyclo[3.3.1]nonan-3-yl)-5-(2-methoxypropan-2-yl)-7-(thiazol-2-yl)-4-(trifluoromethoxy)benzo[d]oxazole], the IC50 was below 100 nM. `OCc1cc(-c2nccs2)c2oc(N3CC4CCC(C3)N4)nc2c1OC(F)(F)F` [Example 201, (2-(3,8-Diazabicyclo[3.2.1]octan-3-yl)-7-(thiazol-2-yl)-4-(trifluoromethoxy)benzo[d]oxazol-5-yl)methanol]: the IC50 is below 100 nM. Consider `CC(O)c1cc(-c2nccs2)c2oc(N3CC4CCC(C3)N4)nc2c1OC(F)(F)F` (stereo not shown) [Example 202, 1-(2-(3,8-Diazabicyclo[3.2.1]octan-3-yl)-7-(thiazol-2-yl)-4-(trifluoromethoxy)benzo[d]oxazol-5-yl)ethan-1-ol], for which the IC50 is below 100 nM.

With `CC(O)c1cc(-c2nccs2)c2oc(N3CC4CC(C3)N4)nc2c1OC(F)(F)F` (stereo not shown) [Example 203, 1-(2-(3,6-Diazabicyclo[3.1.1]heptan-3-yl)-7-(thiazol-2-yl)-4-(trifluoromethoxy)benzo[d]oxazol-5-yl)ethan-1-ol], the IC50 is below 100 nM.

Regarding `CCC(O)c1cc(-c2nccs2)c2oc(N3CC4CCC(C3)N4)nc2c1OC(F)(F)F` (stereo not shown) [Example 204, 1-(2-(3,8-Diazabicyclo[3.2.1]octan-3-yl)-7-(thiazol-2-yl)-4-(trifluoromethoxy)benzo[d]oxazol-5-yl)propan-1-ol], the IC50 was below 100 nM.

On to `CC(C)C(O)c1cc(-c2nccs2)c2oc(N3CC4CCC(C3)N4)nc2c1OC(F)(F)F` (stereo not shown) [Example 205, 1-(2-(3,8-Diazabicyclo[3.2.1]octan-3-yl)-7-(thiazol-2-yl)-4-(trifluoromethoxy)benzo[d]oxazol-5-yl)-2-methylpropan-1-ol], for which the IC50 is below 100 nM.

Consider `OC(c1cc(-c2nccs2)c2oc(N3CC4CCC(C3)N4)nc2c1OC(F)(F)F)C(F)F` (stereo not shown) [Example 206, 1-(2-(3,8-Diazabicyclo[3.2.1]octan-3-yl)-7-(thiazol-2-yl)-4-(trifluoromethoxy)benzo[d]oxazol-5-yl)-2,2-difluoroethan-1-ol], for which the IC50 is below 100 nM. `OC(c1cc(-c2nccs2)c2oc(N3CC4CC(C3)N4)nc2c1OC(F)(F)F)C(F)F` (stereo not shown) [Example 207, 1-(2-(3,6-Diazabicyclo[3.1.1]heptan-3-yl)-7-(thiazol-2-yl)-4-(trifluoromethoxy)benzo[d]oxazol-5-yl)-2,2-difluoroethan-1-ol]: the IC50 was below 100 nM. Consider `COC(c1cc(-c2nccs2)c2oc(N3CC4CC(C3)N4)nc2c1OC(F)(F)F)C(F)F` (stereo not shown) [Example 208, 2-(3,6-Diazabicyclo[3.1.1]heptan-3-yl)-5-(2,2-difluoro-1-methoxyethyl)-7-(thiazol-2-yl)-4-(trifluoromethoxy) benzo[d]oxazole], for which the IC50 was below 100 nM. With `COC(c1cc(-c2nccs2)c2oc(N3CC4CCC(C3)N4)nc2c1OC(F)(F)F)C(F)F` (stereo not shown) [Example 209, 2-(3,8-Diazabicyclo[3.2.1]octan-3-yl)-5-(2,2-difluoro-1-methoxyethyl)-7-(thiazol-2-yl)-4-(trifluoromethoxy)benzo[d]oxazole] the figure was below 100 nM.
